Series [1] relates to CRC cells. The experiment in a line: Transwell invasion assay. It counts as cell-based, human. The note with it: 5 µM, 24 h, versus vehicle-treated control.
The test system of series [2] is CRC cells (CaCo2, DLD1, HCT116, HT29, and SW620). The experiment in a line: Spheroid formation assay, CRC cell lines. It counts as cell-based, human. Particulars: 2.5 and 5 µM, 10–14 days. As for the experimental part: (§1) Monolayer cells were separated into single‐cell suspensions at around 70% confluence using a solution of trypsin. After that, the cells were added to N2‐supplemented DMEM/F12 that contained human basal fibroblast growth factor and human recombinant epidermal growth factor. Cells seeded at a density of 5 × 10^3 cells/well in ultra‐low attachment 24‐well plates (Corning Inc., Corning, NY, USA). After 10–14 days of culture, spheres were quantitated by inverted phase contrast microscopy. The relative sphere formation ability was calculated through the IMT iSolution software (IMT iSolution Inc., Northampton, NJ, USA) measuring the pixel intensity of the sphere area randomly in each plate.

Series [3] relates to CSC221 cells. The experiment in a line: Spheroid formation assay, CSC221. It counts as cell-based, human. The note with it: for spheroid formation, cotreatment with cetuximab: CSC221, 5 µM with cetuximab 10, 25, and 50 µg/mL, 2 weeks; for spheroid formation: CSC221, up to 10 µM, 14 days, compared with TU and DA. As for the experimental part:
as §1

Series [4] deals with HT29 cells. Briefly: MTT cell viability, HT29. In kind it is cell-based. The note with it: Homo sapiens, HT-29; 48 h, MTT assay. As for the experimental part:
(§2) Cells (3 × 10^3 cells/well) were seeded on a 96‐well plate, grown overnight, and then treated with compounds at indicated concentrations for 48 h. After incubation with MTT for 4 h at 37°C, cells were lysed with 150 µL of DMSO (Sigma–Aldrich, St. Louis, USA). Absorbance was measured at 570 nm on a microplate reader with the Gen5 software (v.2.03.1; BioTek, Winooski, VT, USA).
(Formazan colour is commonly taken as a measure of viable cells.)

In series [5] the test system is HaCaT cells. Briefly: MTT cell viability, HaCaT. It counts as cell-based. Particulars: Homo sapiens, 48 h, MTT assay. As for the experimental part: as §2
Series [6] is described as follows: Tissue distribution in CT26 tumor-bearing mice (LC–MS/MS). It counts as in vivo. Particulars: Balb/c mice, 10 mg/kg; for distribution in tumor and intestines: 24 h, compared with TU and DA; for concentration at 24 h: mouse. As for the experimental part: Concentrations of TU, DA, SB4, and SB5 in tissues (liver, intestine, and tumor) and plasma were measured using LC–MS/MS. Samples were prepared by 40 µL of plasma or the supernatant separated from the tissue pellet and added 120 µL of acetonitrile (ACN) containing internal standard (IS). The samples were vortexed, sonicated for 30 min, and then left on ice for 15 min. Subsequently, the samples were centrifuged at 3000×g for 20 min, and the supernatant was analyzed. Calibration curves were prepared by matrix matched with tissue supernatants‐treated DMSO. The standard concentrations were set at 0, 62.5, 250, and 1000 nM for each compound. The LC–MS/MS system comprised a 40D‐XS UHPLC system (Shimadzu), and API 4000 mass spectrometer equipped with a Turbo V IonSpray source (Applied Biosystems). The sample separation was performed on a Waters Atlantis dC18 column (2.1 × 100 mm, 3 µm) using a mobile phase consisting of 0.1% formic acid in water (mobile phase A) and 0.1% formic acid in ACN (mobile phase B). A linear gradient of the two solvents was used (0 min, 0% B; 4 min, 50% B; 7 min, 95% B; 8 min, 0% B), and the equilibration time was 2 min. The flow rate was set at 0.4 mL/min, the column temperature was maintained at 30°C, and the injection volume was 10 µL.
MS/MS analysis was conducted in multiple reaction monitoring (MRM). In positive ion mode transitions were set for DA (m/z 375 → 193), SB4 (m/z 447 → 193), SB5 (m/z 461 → 193), and the IS carbamazepine (100 nM, m/z 237 → 197). In negative ion mode, MRM transitions were monitored for TU (m/z 339 → 217) and the IS 4‐methylumbelliferone (300 nM, m/z 175 → 133). The Turbo V Ion Spray interface was operated in 5500 V (pos) or −4500 V (neg), with a source temperature of 600°C. Nebulizing gas flow, auxiliary gas flow, and curtain gas flow were set at 50, 40, and 30 L/min, respectively, while the collision gas pressure was maintained at 3.4 × 10^−⁵ Torr. Data were analyzed by analyst 1.6.2 (AB Sciex, Framingham, USA).

In series [7] the test system is CaCo2 cells. Briefly: MTT cell viability, CaCo2. In kind it is cell-based. Particulars: Homo sapiens, Caco-2; 48 h, MTT assay. As for the experimental part:
as §2

Series [8] relates to MCF10A cells. The experiment in a line: Spheroid formation assay, MCF10A. In kind it is cell-based, human. The note with it: noncancerous MCF10A, 10–14 days. As for the experimental part: as §1
In series [9] the test system is CSC221 cells. Briefly: MTT cell viability, CSC221. It counts as cell-based. The note with it: Homo sapiens; 48 h, MTT assay. As for the experimental part: as §2
Setting [10] is: liver, read-out: concentration in liver.
Where [11] appears, read: plasma, read-out: quantity in plasma.

Where two headings read alike, the source gives them in different places.

For the molecule `COCCOc1c(C)c(OC(=O)c2c(C)cc(OC)c(C)c2OC)cc(C)c1C(=O)OC` [SB4, 4-(Methoxycarbonyl)-3-(2-methoxyethoxy)-2,5-dimethylphenyl 2,4-dimethoxy-3,6-dimethylbenzoate], the “number of invaded cells” value in series [1] is “significantly reduced the number of invaded cells”. Moreover, the spheroid formation result in series [2] was “suppressed spheroid formation”; in [3] it was “suppress spheroid formation more strongly than TU and DA”; in series [8], “did not change the inhibition or induction of spheroid formation in a statistically significant way”. In addition, the “spheroid formation, cotreatment with cetuximab” value in series [3] was “significantly reduced the adverse effects of cetuximab”. The IC50 in series [4] was found to be 3.95 µM; in [5], 26.7 µM; in series [7] it was 8.74 µM; in series [9] it was 60 µM. Also, in series [6], the “distribution in tumor and intestines” value is “bioavailability is improved compared with TU and DA”. The figures for the concentration at 24 h in series [6] (setting [10]) and in series [6] (setting [11]) were 1 to 2 nM and < 2 nM, respectively.

Take `COCCCOc1c(C)c(OC(=O)c2c(C)cc(OC)c(C)c2OC)cc(C)c1C(=O)OC` [SB5, 4-(Methoxycarbonyl)-3-(3-methoxypropoxy)-2,5-dimethylphenyl 2,4-dimethoxy-3,6-dimethylbenzoate]: in series [1], the “number of invaded cells” value is reported as “significantly reduced the number of invaded cells”. Also, the spheroid formation entry in series [2] is “suppressed spheroid formation”; in series [3], “suppress spheroid formation more strongly than TU and DA”; in series [8], “did not change the inhibition or induction of spheroid formation in a statistically significant way”. Also, the “spheroid formation, cotreatment with cetuximab” value in series [3] is on record as “significantly reduced the adverse effects of cetuximab”. For the same molecule, the IC50 in series [4] stood at 7.47 µM; in [5], 70.7 µM; in series [7] it was 2.77 µM; in [9], 131 µM. The “distribution in tumor and intestines” value in series [6] is “bioavailability is improved compared with TU and DA”. Besides, the concentration at 24 h in series [6] (setting [10]) is 1 to 2 nM; in series [6] (setting [11]), < 2 nM.

In general, IC50 refers to the point on the concentration scale where inhibition reaches its midpoint. Low values mean greater potency in that assay, high ones weaker potency in that assay.
